Test system: female NOD mice
Experiment: Spontaneous autoimmune diabetes in non-obese diabetic (NOD) mouse model
Assay type: in vivo
Excerpt: Treatment of spontaneous autoimmune diabetes in non-obese diabetic (NOD) mouse model. The NOD model is used as an animal model for human type 1 diabetes. The NOD mouse strain spontaneously develops autoimmune (type 1) diabetes by a process that has similarities to human type 1 diabetes mellitus, e.g., immune-mediated selective destruction of the pancreatic islet 13-cells that produce insulin (M. A. Atkinson and N. K. Maclaren, New England J. Medicine, 331:1428-1436 1994). There is a higher incidence of diabetes (i.e., hyperglycemia, glucosuria, and hypoinsulinemia) in female vs. male NOD mice (80-90% vs. 10-20%, respectively). Disease incidence in this animal model is first observed at approximately 12 to 15 weeks of age with maximum incidence usually peaking 5 to 6 weeks later.
Methods. An oral formulation containing 17α-ethynylandrost-5-ene-3β,7β,17β-triol in 30% w/v β-cyclodextrin sulfobutyl ether sodium salt (Captisol®; CyDex, Inc., Overland Park, Kans.) was used. Six-week old female NOD mice (approximately 20-25 grams) were purchased from The Jackson Laboratories (Bar Harbor, Me.) and housed in a vivarium under pathogen-free conditions. The animals were acclimated for at least one week prior to initiation of oral dosing with 17α-ethynylandrost-5-ene-3β,7β,17β-triol. Animals were randomized into 5 per cage upon receipt and cages were subsequently randomized into dosing groups.
Female NOD mice were treated once daily with vehicle, 17α-ethynylandrost-5-ene-3β,7β,17β-triol (20 or 80 mg/kg in 100 μL, p.o.), or dexamethasone (0.25 mg/kg, 100 μL, i.p.) from 15 to 25 weeks of age (i.e., before the first incidence of diabetes; at the University of Catania), from 13 to 19 weeks of age (2 days after the first incidence of diabetes), or from 12 to 26 weeks of age (9 days after the first incidence of diabetes). Blood glucose was monitored using glucometers (ENCORE Glucometer, Bayer Corp., Elkhart, Ind.) at weekly intervals, beginning at 10 weeks of age. Mice with blood glucose levels 200 mg/dL on two consecutive occasions were considered diabetic. The percentage of animals with diabetes over the course of the experiment was monitored.
Histological assessment of insulitis and functional 13-cell content was assessed at the time of disease diagnosis or at the end of the 26-week study (i.e., disease-free mice). Pancreata (after CO2 euthanasia) were immediately isolated and placed in 10% buffered formalin at room temperature overnight, and then embedded in paraffin. After de-paraffinizing, pancreas samples were rehydrated and 5 μm sections were prepared and fixed on glass slides. Some sections were stained with hematoxylin and eosin (H&E) while others were stained with anti-insulin antibody as follows; prepared sections were immersed in Tris-Buffered Saline (TBS: 10 mM Tris buffer, pH 7.4, 0.15 M NaCl) containing 1% of bovine serum albumin (BSA) and 5% normal goat serum for 2 h at room temperature followed by incubation with 2 μg/mL rat anti-insulin IgG2a monoclonal antibody (MAB1417; R&D Systems, Minneapolis, Minn.) in TBS/1% BSA overnight at 4° C. in a humidified chamber. After washing with TBS/0.5 Tween-20, sections were covered with biotinylated anti-rat IgG secondary antibody (BD biosciences, 1:1,000) for 1 h at room temperature, followed by washing with TBS/Tween-20 and incubation with streptavidin-horseradish peroxidase for 30 min. Sections were then incubated with chromogen substrate, DAB (BD Biosciences), for 5 min and counterstained with hematoxylin. The degree of insulitis (leukocyte infiltration per islet; H&E) and functional 13-cell content per islet (insulin production) was scored using a scale of 0 to 3 in which 0=none, 1=few, 2=moderate, 3=high content of inflammatory cells or functional β-cells. Pancreata that were scored were obtained from a randomly-selected portion of mice from each cohort and scores were reported as the mean±SEM for each cohort.

[1] = dexamethasone 0.25 mg/kg i.p. once daily
[2] = dexamethasone 0.25 mg/kg i.p. once daily, scale of 0 to 3

C[C@@H]1C[C@H]2[C@@H]3CCC4=CC(=O)C=C[C@]4(C)[C@@]3(F)[C@@H](O)C[C@]2(C)[C@@]1(O)C(=O)CO [dexamethasone, reference compound]
Disease Incidence [1]: 0.20 ± 0.20
No. Islets/pancreas (H&E) [1]: 8.2 ± 6.3
Insulitis Score/Islet (H&E) [2]: 2.0 ± 0.6
β-Cell Score/Islet (Insulin) [2]: 2.3 ± 0.3
first incidence of diabetes (week 19, once daily treatment from 15 to 25 weeks of age (vehicle 25%)): 0%

Source: US20100227841A1, “Patient populations and treatment methods” (Harbor BioSciencs, Inc., priority 2008, published 2010)
